Measured values: ChEMBL document CHEMBL4765375, “Synthesis, antiproliferative activity and SAR analysis of (-)-cleistenolide and analogues” (Eur J Med Chem, 2020)
pIC50: −log10 of the molar value.

Tests used:
K562 = test: Antiproliferative activity against human K562 cells assessed as reduction in cell viability measured after 6 days by MTT assay; format: functional, cell-based; conditions: K562, 144 h
HL-60 = test: Antiproliferative activity against human HL-60 cells assessed as reduction in cell viability measured after 6 days by MTT assay; format: functional, cell-based; conditions: HL-60, 144 h
Jurkat = test: Antiproliferative activity against human Jurkat cells assessed as reduction in cell viability measured after 6 days by MTT assay; format: functional, cell-based; conditions: 144 h
Raji [1] = test: Antiproliferative activity against human Raji cells assessed as reduction in cell viability measured after 6 days by MTT assay; format: functional, cell-based; conditions: 144 h
MCF7 = test: Antiproliferative activity against human MCF7 cells assessed as reduction in cell viability measured after 6 days by MTT assay; format: functional, cell-based; conditions: MCF7, 144 h
MDA-MB-231 [2] = test: Antiproliferative activity against human MDA-MB-231 cells assessed as reduction in cell viability measured after 6 days by MTT assay; format: functional, cell-based; conditions: MDA-MB-231, 144 h
HeLa = test: Antiproliferative activity against human HeLa cells assessed as reduction in cell viability measured after 6 days by MTT assay; format: functional, cell-based; conditions: 144 h
A549 [3] = test: Antiproliferative activity against human A549 cells assessed as reduction in cell viability measured after 6 days by MTT assay; format: functional, cell-based; conditions: A549, 144 h
MRC5 = test: Cytotoxicity against human MRC5 cells assessed as reduction in cell viability measured after 6 days by MTT assay; format: cell-based; conditions: MRC5, 144 h
Raji [4] = test: Potency index, ratio of doxorubicin IC50 to compound IC50 for human Raji cells; format: functional
A549 [5] = test: Potency index, ratio of doxorubicin IC50 to compound IC50 for human A549 cells; format: functional
MDA-MB-231 [6] = test: Potency index, ratio of doxorubicin IC50 to compound IC50 for human MDA-MB-231 cells; format: functional

| SMILES | pIC50 (K562) | pIC50 (HL-60) | pIC50 (Jurkat) | pIC50 (Raji [1]) | pIC50 (MCF7) | pIC50 (MDA-MB-231 [2]) | pIC50 (HeLa) | pIC50 (A549 [3]) | pIC50 (MRC5) | Ratio IC50 (Raji [4]) | Ratio IC50 (A549 [5]) | Ratio IC50 (MDA-MB-231 [6]) |
| --- | --- | --- | --- | --- | --- | --- | --- | --- | --- | --- | --- | --- |
| CC(=O)O[C@@H]1C=CC(=O)O[C@@H]1[C@@H](COC(=O)c1ccc(Cl)cc1)OC(C)=O | 5.43 | 4.49 | 4.61 | 5.73 | 5.58 | 5.73 | 4.96 | 4.81 | < 4.00 |  |  |  |
| CC(=O)OC[C@@H](OC(C)=O)[C@H]1OC(=O)C=C[C@H]1OC(C)=O | 5.12 | 4.53 | 4.61 | 5.00 | 5.41 | 5.13 | 5.58 | 4.90 | < 4.00 |  |  |  |
| O=C1C=C[C@@H](OCc2ccccc2)[C@@H]([C@@H](CO)OCc2ccccc2)O1 | 5.85 | 4.99 | 4.91 | 8.00 | 4.75 | 5.32 | 5.32 | 4.89 | < 4.00 | 298 |  |  |
| COc1ccc(/C=C/C(=O)OC[C@@H](OC(C)=O)[C@H]2OC(=O)C=C[C@H]2OC(C)=O)cc1 | 5.16 | 5.00 | 5.59 | 5.00 | 5.03 | 4.64 | 5.23 | 5.85 | 4.11 |  |  |  |
| CO[C@H]1CC(=O)O[C@H]([C@@H](COC(=O)/C=C/c2ccc([N+](=O)[O-])cc2)OC(C)=O)[C@@H]1OC(C)=O | 5.62 | 5.51 | 6.92 | 5.25 | 5.29 | 4.54 | 6.17 | 6.74 | < 4.00 |  | 27 |  |
| CC(=O)O[C@@H]1C=CC(=O)O[C@@H]1[C@@H](COC(=O)/C=C/c1ccc(F)cc1)OC(C)=O | 5.46 | 5.72 | 5.27 | 5.64 | 5.37 | 4.46 | 5.77 | 5.67 | < 4.00 |  |  |  |
| O=C1C=C[C@@H](OCc2ccccc2)[C@@H]([C@@H](COC(=O)/C=C/c2ccc(F)cc2)OCc2ccccc2)O1 | 6.00 | 5.27 | 5.38 | 5.61 | 5.52 | 5.45 | 5.14 | 4.92 | < 4.00 |  |  |  |
| O=C1CC2OCC(O)C(O1)C2O (stereo unspecified) | 5.53 | 5.79 | 5.78 | 5.09 | 5.48 | 4.50 | 5.93 | 5.94 | < 4.00 |  |  |  |
| CC(=O)O[C@@H]1C=CC(=O)O[C@@H]1[C@@H](COC(=O)c1ccc([N+](=O)[O-])cc1)OC(C)=O | 5.12 | 5.95 | 5.13 | 4.73 | 5.27 | 5.39 | 5.33 | 5.06 | < 4.00 |  |  |  |
| O=C1CC2OCC(OCc3ccccc3)C(O1)C2OCc1ccccc1 (stereo unspecified) | 5.09 | 5.46 | 5.97 | 6.22 | 6.68 | 6.80 | 5.09 | 5.20 | < 4.00 |  |  |  |
| O=C1C=C[C@@H](OC(=O)c2ccccc2)[C@@H]([C@@H](COC(=O)c2ccccc2)OC(=O)c2ccccc2)O1 | 5.49 | 5.08 | 4.33 | 5.97 | 5.63 | 4.28 | 4.81 | 4.67 | < 4.00 |  |  |  |
| COc1cccc(C(=O)OC[C@@H](OC(=O)c2cccc(OC)c2)[C@H]2OC(=O)C=C[C@H]2OC(=O)c2cccc(OC)c2)c1 | 5.33 | 5.21 | 4.67 | 5.57 | 4.52 | 5.80 | 5.12 | 4.74 | < 4.00 |  |  |  |
| CC(=O)O[C@@H]1C=CC(=O)O[C@@H]1[C@@H](COC(=O)/C=C/c1ccc([N+](=O)[O-])cc1)OC(C)=O | 5.63 | 5.39 | 6.24 | 5.56 | 5.85 | 5.16 | 5.74 | 5.65 | < 4.00 |  |  |  |
| CC(=O)O[C@@H]1C=CC(=O)O[C@@H]1[C@@H](COC(=O)c1c(Cl)cc(Cl)cc1Cl)OC(C)=O |  |  |  |  |  |  |  |  |  |  |  | 5 |
| CC(=O)OC[C@@H](OCc1ccccc1)[C@H]1OC(=O)C=C[C@H]1OCc1ccccc1 | 6.06 | 5.03 | 4.83 | 5.74 | 4.72 | 5.19 | 5.27 | 4.82 | < 4.00 |  |  |  |
| COc1ccc(/C=C/C(=O)OC[C@@H](OCc2ccccc2)[C@H]2OC(=O)C=C[C@H]2OCc2ccccc2)cc1 | 6.37 | 5.80 | 4.99 | 6.16 | 5.95 | 5.49 | 5.97 | 5.37 | < 4.00 |  |  |  |
| O=C1C=C[C@@H](OCc2ccccc2)[C@@H]([C@@H](COC(=O)/C=C/c2ccccc2)OCc2ccccc2)O1 | 5.80 | 6.21 | 5.30 | 5.88 | 5.59 | 5.30 | 5.02 | 4.88 | < 4.00 |  |  |  |
| O=C1C=C[C@@H](OCc2ccccc2)[C@@H]([C@@H](COC(=O)/C=C/c2ccc([N+](=O)[O-])cc2)OCc2ccccc2)O1 | 5.90 | 5.60 | 5.24 | 6.85 | 5.78 | 5.81 | 5.58 | 5.28 | < 4.00 |  |  |  |
